Test results taken from paper PMC11407620, “Repurposing auranofin and meclofenamic acid as energy-metabolism inhibitors and anti-cancer drugs” (PLOS ONE, 2024).
Several values for one entry are separate records, joined by “and”; a condition that tells them apart may be missing. Identical values can stand only once.

What was measured:
Colorectal COLO205 cells = assay: Cell proliferation, 24 h drug exposure; assay type: cell-based, human
Procedure: (§1) All metastatic (breast MDA-MB231, MDA-MB468, cervix HeLa, prostate PC3, colorectal HCT116, COLO205, glioblastoma U373), low-metastatic (breast MCF-7) cancer and non-cancer (fibroblast 3T3, cardiomyocytes H9C2) cell lines (American Type Culture Collection, Rockville, MD, USA) used in this study were cultured in Petri dishes in 20 mL of Dulbecco’s Modified Eagle’s Medium (DMEM, Sigma, MO, USA) supplemented with 10% fetal bovine serum (Biowest, Mexico) and 10,000 U penicillin/streptomycin (Sigma-Aldrich, MO, USA). […] For growth and maintenance, cells were incubated in 5% CO2/95% air at 37°C and kept until 80–90% of confluence was reached. Then, cells were harvested, washed by centrifugation and resuspended in Krebs-Ringer buffer (KR, 125 mM NaCl, 5 mM KCl, 25 mM Hepes, 1 mM MgCl2, 1 mM KH2PO4, 1.4 mM CaCl2, pH 7.4) for further use. For experimentation, cancer cells (3–5 x 10^6 cells) were cultured in DMEM (with 25 mM glucose) for 24 h in the absence of drugs. Afterwards, old-medium was replaced with fresh DMEM medium (with 25 mM glucose) in the absence (control, non-treated cells) or in the presence of logarithmic concentrations of Aur and MA for 24 h more, under the same culture conditions described above. Viability of cultured cells was determined by the trypan blue exclusion assay. The protein concentration was determined by the Lowry method.
(§2) For cell proliferation in the presence of drugs, cancer cells (20 x 10^3 cells/well) were grown in 96-well plates containing DMEM (Sigma-Aldrich) plus 10% bovine fetal serum for 24 h. Afterwards, Aur or MA (0.01, 0.1, 10 and 100 μM) were added to the cell cultures and incubated for additional 24 h. The effect of these drugs on cell proliferation was determined in 96-well plates by the MTT (3-[4,5-dimethyl-thiazol-2-yl]-2,5-diphenyltetrazolium bromide) assay. The viability of cancer cells was > 95% after treatment with drugs.

Breast MDA-MB-468 cells = assay: Cell proliferation, 24 h drug exposure; assay type: cell-based, human
Procedure: as §1, §2

[1] = set-up: method as in PMID 27821451, PMID 6411921; settings: patients receiving oral Aur; after 24 h -7 d of treatment; cited from earlier work
[2] = test system: HeLa, MDA-MB-231 and MDA-MB-468 cells; assay: Cell invasiveness, Boyden chamber; assay type: cell-based, human; settings: Aur at IC50 (1.7, 0.8, 2 μM); 24 h
Procedure: (§3) The 96-multiwell Boyden chambers (Merck Millipore, MA, USA) assay was performed for cellular invasiveness detection. Cancer cells (5 × 10^4 cells/well) were re-suspended in free-serum DMEM and placed in the upper Boyden chamber compartment. Free-serum DMEM was also placed in the lower compartment of the chamber. Afterwards, the Boyden chamber was placed at 37°C and 95% air/5% CO2 for 24 h. Invasive cancer cells within the lower chamber compartment were detected by using the calcein-AM (60 nM, 1 h) assay at 37°C. Calcein-fluorescence was measured at λexcitation = 485 nm and λemission = 520 nm in a Nunclon microplate reader (Roskilde, Denmark).
The Aur concentration added was 1.7, 0.8, 2 and 0.6 μM for HeLa, MDA-MB-231, MDA-MB-468 and U373 cells, respectively. n = 3; *p < 0.05, **p<0.01 vs. Control (Non-treated cells).

GAPDH = test system: GAPDH; set-up: method as in PMID 36560881; settings: OVCAR-8 cells; Aur 2.5 μM/ 8 h; cited from earlier work
HeLa cells [3] = assay: Mitophagy assay (MTG/LTR co-localization); assay type: cell-based, human; settings: Aur 1.7 μM, 24 h
Procedure: The selective removal of damaged/inhibited mitochondria by autophagosomes and lysosomes (i.e., mitophagy) was detected by using an EVOS epifluorescence cell imaging microscope (ThermoFisher, Waltham MA, USA). HeLa cells (5 × 10^4 cells/mL) were cultured in 2 mL DMEM in glass bottom culture dishes and exposed to Aur for 24 h. HeLa cells were incubated with 400 nM Hoechst (Bis-Benzimide H 33342 trihydrochloride), 500 nM MitoTracker-Green FM and 500 nM LysoTracker-Red for 30 min at 37°C for nuclei, mitochondria and lysosome detection, respectively. Afterwards, cells were washed, resuspended with DMEM medium without red phenol and placed in the EVOS microscope for their analysis.
To establish which cell processes were associated to Aur-dependent OxPhos inhibition, mitochondrial digestion (mitophagy) and ROS production were assayed in HeLa cells (Fig 2). Mitophagy is the selective removal of dysfunctional or damaged mitochondria by autophagosomes, which is triggered by mitochondrial inner membrane depolarization and the generation of reactive oxygen species (ROS). Mitophagy was assessed by the number of lysosomes and their co-localization with mitochondria in LTR/MTG-loaded cells by epifluorescence microscopy. […] In addition, dead cells were previously removed for the dye loading procedure, thus discarding unspecific drug effects on mitophagy. […]

[4] = test system: HeLa, MDA-MB-231 and MDA-MB-468 cells; assay: Cell migration, wound healing assay; assay type: cell-based, human; settings: Aur at IC50 (1.7, 0.8, 2 μM); 24 h
Procedure: The wound healing assay was performed for cell migration detection. In petri dishes with full DMEM, cancer cells (5 x 10^6 cells/well) were cultured at 37°C under 95% air and 5% CO2 until 80–90% confluence was attained. Afterwards, cell culture was wounded with a 1 mL pipette tip, washed twice with PBS (155 mM NaCl, 1.5 mM KH2PO4, 2.7 mM NaH2PO4, pH 7.2) and subsequently incubated at 37°C with fresh non-serum DMEM. Cellular migration images were taken in an inverted microscope (Zeiss, Thornwood, NY, USA) after 0 and 24 h incubation time. Using a graduated reticule (Zeiss, Thornwood, NY, USA), cellular migration was assessed from the petri dish’s border to its center distance travelled.
The Aur concentration added was 1.7, 0.8 and 2 μM for HeLa, MDA-MB-231 and MDA-MB-468 cells, respectively. n = 3; *p < 0.05, **p<0.01 vs. Control (Non-treated cells).

HeLa cells [5] = assay: Cell invasiveness, Boyden chamber; assay type: cell-based; settings: Homo sapiens, MA 10 μM, 24 h
Procedure: as §3
S1 Figure. Cancer invasiveness assay in metastatic cancer cells exposed to MA (A) and perhexiline (B) for 24 h. All cancer cell invasiveness was compared with MDA-MB-231 cells, which are cancer cells with the highest invasiveness ability. n=3; *P < 0.05 vs. MDA-MB-231 non-treated cells.

| SMILES | IC50 (Colorectal COLO205 cells; Colorectal COLO205, 24 h, read-out: IC50 for proliferation cell rate) [µM] | TI ratio (3T3/ cancer cells) (Colorectal COLO205 cells; IC50 3T3 / IC50 COLO 205) | TI ratio (H9C2/cancer cells) (Colorectal COLO205 cells; IC50 H9C2 / IC50 COLO 205) | IC50 (Breast MDA-MB-468 cells; Breast MDA-MB-468, 24 h, read-out: IC50 for proliferation cell rate) [µM] | TI ratio (3T3/ cancer cells) (Breast MDA-MB-468 cells; IC50 3T3 / IC50 MDA-MB-468) | TI ratio (H9C2/cancer cells) (Breast MDA-MB-468 cells; IC50 H9C2 / IC50 MDA-MB-468) | blood Aur levels [1] | inhibition of invasiveness [2] | lower GAPDH activity vs. non-treated cells (GAPDH) [%] | mitophagy (MTG mitochondria/LTR lysosomes co-localization) (HeLa cells [3]) | inhibition of migration [4] | inhibition at 10 µM (HeLa cells [5]) [%] |
| --- | --- | --- | --- | --- | --- | --- | --- | --- | --- | --- | --- | --- |
| CC(=O)OC[C@H]1O[C@@H]([S-])[C@H](OC(C)=O)[C@@H](OC(C)=O)[C@@H]1OC(C)=O.CCP(CC)CC.[Au+] [Aur, [1-(thio-κS)-β-D-glucopyranose-2,3,4,6-tetraacetyl] (triethylphosphine)-gold] | 6 ± 2 | 7 | 13 | 2 ± 1 | 21 | 39 | 49–310 ng/mL and 0.1–0.6 μM | 45–80% | 40 | significant enhancement | 90–95% | – |
| Cc1ccc(Cl)c(Nc2ccccc2C(=O)O)c1Cl [MA, Meclofenamic acid] | – | – | – | – | – | – | – | – | – | – | – | 65 |
